IC50 and Kb data for 18 compounds are collected here from US20190152992A1, “BENZODIOXANE DERIVATIVES AND THEIR PHARMACEUTICAL USE” (Orion Corporation, priority 2016, published 2019).

One assay addresses T1, human alpha2C receptors (Homo sapiens, UniProt P18825).
T1 sequence (P18825 1-462): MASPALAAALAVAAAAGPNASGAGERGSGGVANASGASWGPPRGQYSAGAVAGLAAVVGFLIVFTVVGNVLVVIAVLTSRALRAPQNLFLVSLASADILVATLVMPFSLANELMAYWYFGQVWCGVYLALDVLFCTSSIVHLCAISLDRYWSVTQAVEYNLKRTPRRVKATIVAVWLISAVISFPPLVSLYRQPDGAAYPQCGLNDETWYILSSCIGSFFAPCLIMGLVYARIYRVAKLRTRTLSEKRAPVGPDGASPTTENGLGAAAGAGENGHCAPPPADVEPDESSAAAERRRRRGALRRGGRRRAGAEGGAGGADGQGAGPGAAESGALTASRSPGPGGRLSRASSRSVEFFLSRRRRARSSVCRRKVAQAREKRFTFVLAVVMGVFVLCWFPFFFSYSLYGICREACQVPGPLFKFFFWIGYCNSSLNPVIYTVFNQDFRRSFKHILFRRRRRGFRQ
The assay can be described thus: Determination of alpha2C antagonistic activity in vitro (FLIPR calcium assay). To be noted: for Kb: Kb calculated from IC50 with the Cheng-Prusoff equation, adrenaline as agonist, CHO cells, human alpha2C.

Assay [1] has as its target T2, human alpha2A receptors (Homo sapiens, UniProt P08913).
T2 sequence (P08913 1-465): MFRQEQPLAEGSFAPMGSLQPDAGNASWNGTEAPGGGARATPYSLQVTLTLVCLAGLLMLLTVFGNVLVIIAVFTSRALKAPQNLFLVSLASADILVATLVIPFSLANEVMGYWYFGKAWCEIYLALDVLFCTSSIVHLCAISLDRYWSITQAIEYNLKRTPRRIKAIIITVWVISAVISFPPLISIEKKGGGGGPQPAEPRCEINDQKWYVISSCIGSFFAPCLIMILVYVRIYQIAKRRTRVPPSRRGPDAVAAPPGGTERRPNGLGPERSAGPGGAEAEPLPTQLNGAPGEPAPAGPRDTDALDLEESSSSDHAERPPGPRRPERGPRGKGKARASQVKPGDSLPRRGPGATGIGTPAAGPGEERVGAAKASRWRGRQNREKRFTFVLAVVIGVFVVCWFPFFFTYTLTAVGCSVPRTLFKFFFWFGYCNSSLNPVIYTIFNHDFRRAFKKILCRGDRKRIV
As to conditions: for IC50: read-out: Alpha 2A Adrenaline IC50, antagonism, cells stimulated with adrenaline, CHO cells stably transfected with human alpha2A, cotransfected with Gα16, intracellular calcium; for Kb: read-out: Alpha 2A Adrenaline Kb, Kb calculated from IC50 with the Cheng-Prusoff equation, adrenaline as agonist, CHO cells, human alpha2A.

For assay [2], the target named is T2, human alpha2A receptors. The assay can be described thus: cell-based.
Setting [3] is: read-out: Alpha 2C Adrenaline IC50, antagonism, cells stimulated with adrenaline, CHO cells stably transfected with human alpha2C, cotransfected with Gα16, intracellular calcium.
Setting [4] is: read-out: Alpha 2C Adrenaline Kb.

Counter-ions that a name gives are not always drawn. Like-named read-outs stand apart in the source and are kept apart here. Where only a bound is given, the exact number is not on record here.

In general, IC50 refers to the point on the concentration scale where inhibition reaches its midpoint.

Procedure for human alpha2C receptors: Experiment 1: Determination of alpha2A and alpha2C Antagonistic Activity In Vitro
The growth medium was removed and the cells were incubated with the test compounds and the FLIPR Calcium 6 Assay reagent (Molecular Devices, CA, USA) for 2 h at 37° C. in dark. The test compounds (concentrations in cells 100 pM-10 μM) were dissolved in Probenecid-Ringer consisting of 150 mM NaCl, 3 mM KCl, 1.2 mM MgCl2, 1 mM CaCl2, 5 mM glucose, 20 mM HEPES and 2.5 mM probenecid (pH 7.4 adjusted with 1.0 M NaOH). […] All experiments were performed at 37° C. For agonism measurements the test compounds dissolved in Probenecid-Ringer were applied by FLIPR Tetra at 15 s time point. In order to determine antagonism, the cells were stimulated either with 100 nM adrenaline or noradrenaline and the test compounds were added to the cells 2 h before the experiment with the FLIPR Calcium 6 Assay reagent. […] Typically, there were four replicates at each concentration and six different dose levels. […] The minimum fluorescence value subtracted from the maximum value for each well was used in the calculations. ScreenWorks version 4.0 software was used for analyzing the results. Fitting of the antagonist dose-response results was performed with the free Hill equation and the IC50 values were fitted with IDBS XE software using model 200: y=(A+(B/(1+((x/C)̂D)))), where A is the curve maximum, B the curve minimum and C equals the EC50 value. D is slope factor (Hill). Kb was calculated with the Cheng-Prusoff equation Kb=A/((B/C)+1), where A is the IC50 of antagonist, B the concentration of agonist and C the EC50 of the agonist.

With `CC1CCN([C@H]2CCCN(C[C@H]3COc4ccccc4O3)C2)C1=O` (single isomer, unassigned; diastereomer 2) [example 99], the figures for the IC50 at human alpha2C receptors and at human alpha2A receptors [1] were 0.15 nM and more than 10000 nM, respectively. For the same compound, the Kb was 0.02 nM at human alpha2C receptors (Alpha 2C Adrenaline Kb) and more than 449 nM on human alpha2A receptors [1].

As for `O=C1NCCCN1[C@H]1CCCN(C[C@H]2COc3ccccc3O2)C1` [compound 53, 1-((S)-1-(((S)-2,3-Dihydrobenzo[b][1,4]dioxin-2-yl)methyl)piperidin-3-yl)tetrahydropyrimidin-2(1H)-one], the half-inhibitory concentration (IC50) at human alpha2C receptors (setting [3]) is 1.04 nM; at human alpha2A receptors [1] it was more than 10000 nM. The Kb on human alpha2C receptors (setting [4]) was 0.105 nM; at human alpha2A receptors [1], more than 449 nM.

For “(R)-1-((S)-1-(((S)-2,3-Dihydrobenzo[b][1,4]dioxin-2-yl)methyl)piperidin-3-yl)-3-methyl-3-phenylpyrrolidine-2,5-dione and (S)-1-((S)-1-(((S)-2,3-dihydrobenzo[b][1,4]dioxin-2-yl)methyl)piperidin-3-yl)-3-methyl-3-phenylpyrrolidine-2,5-dione [example 36]”, the figures for the IC50 on human alpha2C receptors (setting [3]) and at human alpha2A receptors [1] were 0.908 nM and 1560 nM, respectively. Further, the Kb on human alpha2C receptors (setting [4]) was 0.091 nM; on human alpha2A receptors [1], 70 nM.

As to `O=S1(=O)c2ccccc2CN1[C@H]1CCCN(C[C@H]2COc3ccccc3O2)C1` [example 81, 2-((S)-1-(((S)-2,3-Dihydrobenzo[b][1,4]dioxin-2-yl)methyl)piperidin-3-yl)-2,3-dihydrobenzo[d]isothiazole 1,1-dioxide], the 50% inhibitory concentration (IC50) on human alpha2A receptors [2] is more than 10000 nM; on human alpha2C receptors, 653 nM. In addition, the Kb at human alpha2A receptors [2] was more than 449 nM; at human alpha2C receptors (Alpha 2C Adrenaline Kb) it was 65.7 nM.

Turning to `CNCc1nc2ccc(Cl)cc2n1[C@H]1CCCN(C[C@H]2COc3ccccc3O2)C1` [example 153, 1-(6-Chloro-1-((S)-1-(((S)-2,3-dihydrobenzo[b][1,4]dioxin-2-yl)methyl)piperidin-3-yl)-1H-benzo[d]imidazol-2-yl)-N-methylmethanamine], the concentration for half-maximal inhibition (IC50) on human alpha2A receptors [2] was more than 10000 nM; on human alpha2C receptors, 3580 nM. In addition, the Kb on human alpha2A receptors [2] is more than 449 nM; at human alpha2C receptors (Alpha 2C Adrenaline Kb), 361 nM.

In the case of `CC(C)N1C(=O)N([C@H]2CCCN(C[C@H]3COc4ccccc4O3)C2)C[C@@H]1c1ccccc1` [example 7, (S)-1-((S)-1-(((S)-2,3-Dihydrobenzo[b][1,4]dioxin-2-yl)methyl)piperidin-3-yl)-3-isopropyl-4-phenylimidazolidin-2-one], the IC50 against human alpha2A receptors [2] is 1730 nM; on human alpha2C receptors it was less than 0.1 nM. The Kb at human alpha2A receptors [2] is 78 nM; on human alpha2C receptors (Alpha 2C Adrenaline Kb) it was less than 0.01 nM.

With `CC1=C(c2ccccc2)C(=O)N([C@H]2CCCN(C[C@H]3COc4ccccc4O3)C2)C1` [example 42, 1-((S)-1-(((S)-2,3-Dihydrobenzo[b][1,4]dioxin-2-yl)methyl)piperidin-3-yl)-4-methyl-3-phenyl-1H-pyrrol-2(5H)-one], the IC50 against human alpha2A receptors [2] is more than 10000 nM; at human alpha2C receptors, 331 nM. Moreover, the figures for the Kb at human alpha2A receptors [2] and at human alpha2C receptors (Alpha 2C Adrenaline Kb) were more than 449 nM and 33.3 nM, respectively.

On to `O=C1C(=O)N([C@H]2CCCN(C[C@H]3COc4ccccc4O3)C2)C(=O)N1C1CCCCC1` [example 126, 1-Cyclohexyl-3-((S)-1-(((S)-2,3-dihydrobenzo[b][1,4]dioxin-2-yl)methyl)piperidin-3-yl)imidazolidine-2,4,5-trione], for which the results for the concentration for half-maximal inhibition (IC50) against human alpha2A receptors [2] and at human alpha2C receptors were 3890 nM and 0.01 nM, respectively. Further, the Kb at human alpha2A receptors [2] is 175 nM; on human alpha2C receptors (Alpha 2C Adrenaline Kb), 0.001 nM.

Consider `O=c1n(-c2ccccc2)c2ccccc2n1[C@H]1CCCN(C[C@H]2COc3ccccc3O2)C1` [example 149, 1-((S)-1-(((S)-2,3-Dihydrobenzo[b][1,4]dioxin-2-yl)methyl)piperidin-3-yl)-3-phenyl-1H-benzo[d]imidazol-2(3H)-one], for which the concentration for half-maximal inhibition (IC50) at human alpha2A receptors [2] is more than 10000 nM; at human alpha2C receptors, 3220 nM. Also, the Kb at human alpha2A receptors [2] was more than 449 nM; on human alpha2C receptors (Alpha 2C Adrenaline Kb) it was 324 nM.

In the case of `O=C1CN(C2CC2)C(=O)N1[C@H]1CCCN(C[C@H]2COc3ccccc3O2)C1` [example 119, 1-Cyclopropyl-3-((S)-1-(((S)-2,3-dihydrobenzo[b][1,4]dioxin-2-yl)methyl)piperidin-3-yl)imidazolidine-2,4-dione], the values for the IC50 against human alpha2A receptors [2] and at human alpha2C receptors were more than 10000 nM and 17.5 nM, respectively. Moreover, the Kb at human alpha2A receptors [2] was more than 449 nM; on human alpha2C receptors (Alpha 2C Adrenaline Kb), 1.76 nM.

As for `O=C1c2ccncc2CN1[C@H]1CCCN(C[C@H]2COc3ccccc3O2)C1` [example 76, 2-((S)-1-(((S)-2,3-Dihydrobenzo[b][1,4]dioxin-2-yl)methyl)piperidin-3-yl)-2,3-dihydro-1H-pyrrolo[3,4-c]pyridin-1-one], the IC50 against human alpha2A receptors [2] is more than 10000 nM; at human alpha2C receptors, 1770 nM. In addition, the Kb is more than 449 nM at human alpha2A receptors [2] and 178 nM at human alpha2C receptors (Alpha 2C Adrenaline Kb).

Regarding `O=C1c2ncccc2CN1[C@H]1CCCN(C[C@H]2COc3ccccc3O2)C1` [example 77, 6-((S)-1-(((S)-2,3-Dihydrobenzo[b][1,4]dioxin-2-yl)methyl)piperidin-3-yl)-5H-pyrrolo[3,4-b]pyridin-7(6H)-one], the half-inhibitory concentration (IC50) was more than 10000 nM against human alpha2A receptors [2] and 10.5 nM at human alpha2C receptors. In addition, the figures for the Kb on human alpha2A receptors [2] and on human alpha2C receptors (Alpha 2C Adrenaline Kb) were more than 449 nM and 1.05 nM, respectively.

Take `O=C1C(=O)N([C@H]2CCCN(C[C@H]3COc4ccccc4O3)C2)C(=O)N1Cc1ccccc1` [example 131, 1-Benzyl-3-((S)-1-(((S)-2,3-dihydrobenzo[b][1,4]dioxin-2-yl)methyl)piperidin-3-yl)imidazolidine-2,4,5-trione]: the IC50 is 5700 nM against human alpha2A receptors [2] and 1.64 nM on human alpha2C receptors. For the same compound, the Kb on human alpha2A receptors [2] was 256 nM; on human alpha2C receptors (Alpha 2C Adrenaline Kb) it was 0.165 nM.

Take `O=C1NC(c2ccccc2)(c2ccccc2)CN1[C@H]1CCCN(C[C@H]2COc3ccccc3O2)C1` [example 2, 1-((S)-1-(((S)-2,3-Dihydrobenzo[b][1,4]dioxin-2-yl)methyl)piperidin-3-yl)-4,4-diphenylimidazolidin-2-one]: the half-inhibitory concentration (IC50) on human alpha2A receptors [2] is 1330 nM; on human alpha2C receptors, less than 0.1 nM. In addition, the Kb is 60 nM at human alpha2A receptors [2] and less than 0.01 nM on human alpha2C receptors (Alpha 2C Adrenaline Kb).

As for `O=C1c2ccc(F)cc2CN1[C@H]1CCCN(C[C@H]2COc3ccccc3O2)C1` [example 58, 2-((S)-1-(((S)-2,3-Dihydrobenzo[b][1,4]dioxin-2-yl)methyl)piperidin-3-yl)-5-fluoroisoindolin-1-one hydrochloride], the IC50 against human alpha2A receptors [2] was more than 10000 nM; on human alpha2C receptors it was 0.299 nM. For the same compound, the values for the Kb on human alpha2A receptors [2] and on human alpha2C receptors (Alpha 2C Adrenaline Kb) were more than 449 nM and 0.03 nM, respectively.

For `O=C1c2ncsc2CN1[C@H]1CCCN(C[C@H]2COc3ccccc3O2)C1` [example 13, 5-((S)-1-(((S)-2,3-Dihydrobenzo[b][1,4]dioxin-2-yl)methyl)piperidin-3-yl)-5,6-dihydro-4H-pyrrolo[3,4-d]thiazol-4-one], the IC50 against human alpha2A receptors [2] was more than 10000 nM; on human alpha2C receptors, 22.4 nM. In addition, the Kb on human alpha2A receptors [2] was more than 449 nM; on human alpha2C receptors (Alpha 2C Adrenaline Kb) it was 2.26 nM.

In the case of `COc1ccc2c(c1)C(=O)N([C@H]1CCCN(C[C@H]3COc4ccccc4O3)C1)C2` [example 70, 2-((S)-1-(((S)-2,3-Dihydrobenzo[b][1,4]dioxin-2-yl)methyl)piperidin-3-yl)-6-methoxyisoindolin-1-one], the half-inhibitory concentration (IC50) is more than 10000 nM against human alpha2A receptors [2] and 0.905 nM on human alpha2C receptors. Besides, the results for the Kb on human alpha2A receptors [2] and on human alpha2C receptors (Alpha 2C Adrenaline Kb) were more than 449 nM and 0.091 nM, respectively.

For the compound `O=C1C2C3C=CC(C3)C2C(=O)N1[C@H]1CCCN(C[C@H]2COc3ccccc3O2)C1` (stereo partly drawn) [example 34, 2-((S)-1-(((S)-2,3-Dihydrobenzo[b][1,4]dioxin-2-yl)methyl)piperidin-3-yl)-3a,4,7,7a-tetrahydro-1H-4,7-methanoisoindole-1,3(2H)-dione], the figures for the half-inhibitory concentration (IC50) at human alpha2A receptors [2] and on human alpha2C receptors were 6860 nM and 0.02 nM, respectively. Besides, the Kb on human alpha2A receptors [2] was 308 nM; on human alpha2C receptors (Alpha 2C Adrenaline Kb) it was 0.002 nM.
